The source of these data is patent US10287301B2 (Achillion Pharmaceuticals, Inc., priority 2015, dated 2019).

The target of this test is Human Factor D (Homo sapiens (Human), UniProt P00746). The test is described as follows: Human Factor D Assay. Format: biochemical. To be noted: Human Factor D assay of Example 8; Table 2; read-out: IC50. A digest of the protocol: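 First, compound at various concentrations is mixed with 80 nM (final) human serum Factor D in 50 mM Tris, 1M NaCl, pH 7.5 for 5 min at room temperature.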
Chain of Human Factor D (P00746 26-253): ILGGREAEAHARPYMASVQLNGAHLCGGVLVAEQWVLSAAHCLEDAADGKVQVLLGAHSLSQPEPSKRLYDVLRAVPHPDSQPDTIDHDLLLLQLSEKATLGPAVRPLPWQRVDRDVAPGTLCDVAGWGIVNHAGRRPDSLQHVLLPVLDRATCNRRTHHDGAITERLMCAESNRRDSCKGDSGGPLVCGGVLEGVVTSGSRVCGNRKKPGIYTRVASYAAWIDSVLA
For the compound `CC(=O)c1cn(CC(=O)N2C[C@H](F)C[C@H]2C(=O)Nc2cccc(-c3ccccc3Cl)c2F)c2ccc(-c3cnc(N)nc3)cc12` [Compound 215, (2S,4R)-1-(2-(3-acetyl-5-(2-aminopyrimidin-5-yl)-1H-indol-1-yl)acetyl)-N-(2′-chloro-2-fluorobiphenyl-3-yl)-4-fluoropyrrolidine-2-carboxamide], the half-inhibitory concentration (IC50) was less than 1000 nM. To `CC(=O)c1cn(CC(=O)N2C[C@H](F)C[C@H]2C(=O)Nc2cccc(Br)n2)c2ccc(-c3cnc(C4CC4)nc3)cc12` [Compound 216, (2S,4R)-1-(2-(3-acetyl-5-(2-cyclopropylpyrimidin-5-yl)-1H-indol-1-yl)acetyl)-N-(6-bromopyridin-2-yl)-4-fluoropyrrolidine-2-carboxamide] belongs less than 1000 nM; to `CC(=O)c1ncc(-c2ccc3c(c2)c(C(C)=O)cn3CC(=O)N2C[C@H](F)C[C@H]2C(=O)Nc2cccc(Br)n2)cn1` [Compound 218, (2S,4R)-1-(2-(3-acetyl-5-(2-acetylpyrimidin-5-yl)-1H-indol-1-yl)acetyl)-N-(6-bromopyridin-2-yl)-4-fluoropyrrolidine-2-carboxamide], less than 1000 nM; to `CC(=O)c1cn(CC(=O)N2C[C@H](F)C[C@H]2C(=O)Nc2cccc(Br)n2)c2ccc(-c3cnc(N)nc3)cc12` [Compound 219, (2S,4R)-1-(2-(3-acetyl-5-(2-aminopyrimidin-5-yl)-1H-indol-1-yl)acetyl)-N-(6-bromopyridin-2-yl)-4-fluoropyrrolidine-2-carboxamide], less than 1000 nM. Consider `CC(=O)c1nn(CC(=O)N2C[C@H](F)C[C@H]2C(=O)Nc2cccc(OC(F)(F)F)c2F)c2ccc(-c3cnc(C)nc3)cc12` [Compound 220, (2S,4R)-1-(2-(3-acetyl-5-(2-methylpyrimidin-5-yl)-1H-indazol-1-yl)acetyl)-4-fluoro-N-(2-fluoro-3-(trifluoromethoxy)phenyl)pyrrolidine-2-carboxamide], for which the 50% inhibitory concentration (IC50) is less than 1000 nM. For `CC(=O)c1cn(CC(=O)N2N=CCC2C(=O)Nc2cccc(-c3ccccc3Cl)c2F)c2ccc(-c3cnc(C)nc3)cc12` (stereo not shown) [Compound 221, 1-(2-(3-acetyl-5-(2-methylpyrimidin-5-yl)-1H-indol-1-yl)acetyl)-N-(2′-chloro-2-fluorobiphenyl-3-yl)-4,5-dihydro-1H-pyrazole-5-carboxamide] the value was less than 1000 nM; for `CC(=O)c1cn(CC(=O)N2C[C@H](F)C[C@H]2C(=O)Nc2cccc(Br)n2)c2ccc(-c3cnc4nccn4c3)cc12` [Compound 222, (2S,4R)-1-(2-(3-acetyl-5-(imidazo[1,2-a]pyrimidin-6-yl)-1H-indol-1-yl)acetyl)-N-(6-bromopyridin-2-yl)-4-fluoropyrrolidine-2-carboxamide], less than 1000 nM.

Take `CC(=O)c1cn(CC(=O)N2C[C@H](F)C[C@H]2C(=O)Nc2cccc(Cl)n2)c2ccc(-c3cnc4ccnn4c3)cc12` [Compound 223, (2S,4R)-1-(2-(3-acetyl-5-(pyrazolo[1,5-a]pyrimidin-6-yl)-1H-indol-1-yl)acetyl)-N-(6-chloropyridin-2-yl)-4-fluoropyrrolidine-2-carboxamide]: the concentration for half-maximal inhibition (IC50) was less than 1000 nM. To `CC(=O)c1cn(CC(=O)N2C[C@H](F)C[C@H]2C(=O)Nc2cccc(OC(F)(F)F)c2F)c2ccc(-c3cnc4ccnn4c3)cc12` [Compound 224, (2S,4R)-1-(2-(3-acetyl-5-(pyrazolo[1,5-a]pyrimidin-6-yl)-1H-indol-1-yl)acetyl)-4-fluoro-N-(2-fluoro-3-(trifluoromethoxy)phenyl)pyrrolidine-2-carboxamide] belongs less than 1000 nM; to `CC(=O)c1nn(CC(=O)N2C[C@H](F)C[C@H]2C(=O)Nc2cccc(Cl)n2)c2ccc(-c3cnc(C)nc3)cc12` [Compound 225, (2S,4R)-1-(2-(3-acetyl-5-(2-methylpyrimidin-5-yl)-1H-indazol-1-yl)acetyl)-N-(6-chloropyridin-2-yl)-4-fluoropyrrolidine-2-carboxamide], less than 1000 nM. To `CC(=O)c1nn(CC(=O)N2C[C@H](F)C[C@H]2C(=O)NCc2cccc(Cl)c2F)c2ccc(-c3cnc(C)nc3)cc12` [Compound 226, (2S,4R)-1-(2-(3-acetyl-5-(2-methylpyrimidin-5-yl)-1H-indazol-1-yl)acetyl)-N-(3-chloro-2-fluorobenzyl)-4-fluoropyrrolidine-2-carboxamide] belongs less than 1000 nM; to `CC(=O)c1cn(CC(=O)N2NCCC2C(=O)Nc2cccc(-c3ccccc3Cl)c2F)c2ccc(-c3cnc(C)nc3)cc12` (stereo not shown) [Compound 227, 2-(2-(3-acetyl-5-(2-methylpyrimidin-5-yl)-1H-indol-1-yl)acetyl)-N-(2′-chloro-2-fluorobiphenyl-3-yl)pyrazolidine-3-carboxamide], less than 1000 nM; to `CC(=O)c1nn(CC(=O)N2C[C@H](F)C[C@H]2C(=O)Nc2nccc(-c3sccc3Cl)n2)c2ccc(-c3cnc(C)nc3)cc12` [Compound 228, (2S,4R)-1-(2-(3-acetyl-5-(2-methylpyrimidin-5-yl)-1H-indazol-1-yl)acetyl)-N-(4-(3-chlorothiophen-2-yl)pyrimidin-2-yl)-4-fluoropyrrolidine-2-carboxamide], less than 1000 nM. Take `CC(=O)c1nn(CC(=O)N2C[C@H](F)C[C@H]2C(=O)Nc2cc(Cl)sc2C)c2ccc(-c3cnc(C)nc3)cc12` [Compound 229, (2S,4R)-1-(2-(3-acetyl-5-(2-methylpyrimidin-5-yl)-1H-indazol-1-yl)acetyl)-N-(5-chloro-2-methylthiophen-3-yl)-4-fluoropyrrolidine-2-carboxamide]: the half-maximal inhibitory concentration (IC50) is less than 1000 nM. To `CC(=O)c1nn(CC(=O)N2CCC[C@H]2C(=O)Nc2cccc(Br)n2)c2ccc(-c3cnc(C)nc3)cc12` [Compound 230, (S)-1-(2-(3-Acetyl-5-(2-methylpyrimidin-5-yl)-1H-indazol-1-yl)acetyl)-N-(6-bromopyridin-2-yl)pyrrolidine-2-carboxamide] belongs less than 1000 nM; to `CC(=O)c1nn(CC(=O)N2C[C@H](O)C[C@H]2C(=O)Nc2cccc(Br)n2)c2ccc(-c3cnc(C)nc3)cc12` [Compound 231, (2S,4R)-1-(2-(3-Acetyl-5-(2-methylpyrimidin-5-yl)-1H-indazol-1-yl)acetyl)-N-(6-bromopyridin-2-yl)-4-hydroxypyrrolidine-2-carboxamide], less than 1000 nM. Turning to `CC(=O)c1nn(CC(=O)N2C[C@H](F)C[C@H]2C(=O)NC2CCN(C(=O)c3cc(Cl)c[nH]3)CC2)c2ccc(-c3cnc(C)nc3)cc12` [Compound 232, (2S,4R)-1-(2-(3-acetyl-5-(2-methylpyrimidin-5-yl)-1H-indazol-1-yl)acetyl)-N-(1-(4-chloro-1H-pyrrole-2-carbonyl)piperidin-4-yl)-4-fluoropyrrolidine-2-carboxamide], the concentration for half-maximal inhibition (IC50) is less than 1000 nM. To `CC(=O)c1nn(CC(=O)N2C[C@H](F)C[C@H]2C(=O)Nc2cccc(Br)n2)c2ccc(-c3cnc4ccnn4c3)cc12` [Compound 234, (2S,4R)-1-(2-(3-acetyl-5-(pyrazolo[1,5-a]pyrimidin-6-yl)-1H-indazol-1-yl)acetyl)-N-(6-bromopyridin-2-yl)-4-fluoropyrrolidine-2-carboxamide] belongs less than 1000 nM; to `CC(=O)c1nn(CC(=O)N2C[C@H](F)C[C@H]2C(=O)Nc2cccc(OC(F)(F)F)c2F)c2ccc(-c3cnc4ccnn4c3)cc12` [Compound 235, (2S,4R)-1-(2-(3-acetyl-5-(pyrazolo[1,5-a]pyrimidin-6-yl)-1H-indazol-1-yl)acetyl)-4-fluoro-N-(2-fluoro-3-(trifluoromethoxy)phenyl)pyrrolidine-2-carboxamide], less than 1000 nM. Regarding `CC(=O)c1nn(CC(=O)N2C[C@H](F)C[C@H]2C(=O)NCc2cccc(Cl)c2F)c2ccc(-c3cnc4ccnn4c3)cc12` [Compound 236, (2S,4R)-1-(2-(3-acetyl-5-(pyrazolo[1,5-a]pyrimidin-6-yl)-1H-indazol-1-yl)acetyl)-N-(3-chloro-2-fluorobenzyl)-4-fluoropyrrolidine-2-carboxamide], the IC50 is less than 1000 nM. As for `CC(=O)c1nn(CC(=O)N2C[C@H](F)C[C@H]2C(=O)Nc2cccc(-c3ccccc3Cl)c2F)c2ccc(-c3cnc4ccnn4c3)cc12` [Compound 237, (2S,4R)-1-(2-(3-acetyl-5-(pyrazolo[1,5-a]pyrimidin-6-yl)-1H-indazol-1-yl)acetyl)-N-(2′-chloro-2-fluorobiphenyl-3-yl)-4-fluoropyrrolidine-2-carboxamide], the IC50 was less than 1000 nM. For `CC(=O)c1nn(CC(=O)N2[C@@H]3C[C@@H]3C[C@H]2C(=O)Nc2cccc(Br)n2)c2ccc(-c3cnc4ccnn4c3)cc12` [Compound 238, (1R,3S,5R)-2-(2-(3-acetyl-5-(pyrazolo[1,5-a]pyrimidin-6-yl)-1H-indazol-1-yl)acetyl)-N-(6-bromopyridin-2-yl)-2-azabicyclo[3.1.0] hexane-3-carboxamide] the value was less than 1000 nM; for `CC(=O)c1nn(CC(=O)N2[C@@H]3C[C@@H]3C[C@H]2C(=O)Nc2cccc(OC(F)(F)F)c2F)c2ccc(-c3cnc4ccnn4c3)cc12` [Compound 239, (1R,3S,5R)-2-(2-(3-acetyl-5-(pyrazolo[1,5-a]pyrimidin-6-yl)-1H-indazol-1-yl)acetyl)-N-(2-fluoro-3-(trifluoromethoxy)phenyl)-2-azabicyclo[3.1.0] hexane-3-carboxamide], less than 1000 nM; for `CC(=O)c1nn(CC(=O)N2[C@@H]3C[C@@H]3C[C@H]2C(=O)NCc2cccc(Cl)c2F)c2ccc(-c3cnc4ccnn4c3)cc12` [Compound 240, (1R,3S,5R)-2-(2-(3-acetyl-5-(pyrazolo[1,5-a]pyrimidin-6-yl)-1H-indazol-1-yl)acetyl)-N-(3-chloro-2-fluorobenzyl)-2-azabicyclo[3.1.0] hexane-3-carboxamide], less than 1000 nM. With `CC(=O)c1nn(CC(=O)N2C[C@H](F)C[C@H]2C(=O)Nc2cccc(Br)n2)c2ccc(-c3cnc4c(c3)ncn4C)cc12` [Compound 241, (2S,4R)-1-(2-(3-acetyl-5-(3-methyl-3H-imidazo[4,5-b]pyridin-6-yl)-1H-indazol-1-yl)acetyl)-N-(6-bromopyridin-2-yl)-4-fluoropyrrolidine-2-carboxamide], the concentration for half-maximal inhibition (IC50) was less than 1000 nM.

The IC50 is the midpoint of a concentration-inhibition curve.
